From PubChem BioAssay (NCI)
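Assay format: 96-well plates, 48-hour exposure. At the GI50, growth is halved. TGI: total growth inhibition.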

Key:
Assay in all cases: DTP human tumour cell line panel, 48 h
[1] = test system: A549 NSCLC
[2] = test system: HCT-15 colon
[3] = test system: HOP-62 NSCLC
[4] = test system: LOX IMVI melanoma
[5] = test system: M14 melanoma
[6] = test system: MALME-3M melanoma
[7] = test system: SN12C renal
[8] = test system: UO-31 renal
[9] = test system: MDA-MB-231 breast
[10] = test system: PC-3 prostate

Row | SMILES | TGI [1] [µM] | TGI [2] [µM] | TGI [3] [µM] | TGI [4] [µM] | TGI [5] [µM] | TGI [6] [µM] | TGI [7] [µM] | TGI [8] [µM] | TGI [9] [µM] | TGI [10] [µM] | GI50 [1] [µM] | GI50 [2] [µM] | GI50 [3] [µM] | GI50 [4] [µM] | GI50 [5] [µM] | GI50 [6] [µM] | GI50 [10] [µM] | GI50 [7] [µM] | GI50 [8] [µM] | GI50 [9] [µM]
1 | O=C1C2=C(c3ccccc31)C(c1ccccc1Cl)N1C(=O)CSC1=N2 (configuration not stated) | > 100 | > 100 | > 100 | > 100 | > 100 | > 100 | > 100 | > 100 | – | – | – | – | – | – | – | – | – | – | – | –
2 | COC1=C(OC)CCC(/C(C#N)=C/c2ccc(OC)c(OC)c2)=C1 | > 100 | > 100 | 86.9 | > 100 | > 100 | – | > 100 | > 100 | – | – | – | – | – | – | – | – | – | – | – | –
3 | CCNCC(O)c1ccc(N)c([N+](=O)[O-])c1 (configuration not stated) | > 100 | > 100 | > 100 | > 100 | > 100 | – | > 100 | > 100 | > 100 | > 100 | – | – | – | – | – | – | – | – | – | –
4 | O=c1nc2cc(-c3ccccc3)[nH]c2nn1-c1c(Cl)cc(Cl)cc1Cl | 91.7 | > 100 | 56.5 | 50 | 59.3 | 65.7 | 83.7 | 47 | – | – | – | – | – | – | – | – | – | – | – | –
5 | C=C(C)C1/C=C(/C(C)C)CC[C@]2(C)O[C@@H]2CC[C@H](C)CC1=O (some centres not stated) | > 100 | > 100 | > 100 | 57.6 | > 100 | > 100 | > 100 | 98.1 | – | > 100 | 48.5 | > 100 | 76 | 23.3 | 49.6 | 36.1 | 32.4 | > 100 | 28.6 | –
6 | CCOC(=O)C(C)(C)Oc1ccc2c(-c3ccc(Cl)cc3)cc(=O)oc2c1 | > 100 | > 100 | > 100 | > 100 | > 100 | > 100 | > 100 | > 100 | – | – | – | – | – | – | – | – | – | – | – | –
7 | CCC1(OC(C)=O)C(=O)OCc2c1cc1n(c2=O)Cc2cc3ccccc3nc2-1 (configuration not stated) | > 100 | > 100 | 9.81 | 13.5 | > 33 | > 100 | > 91.9 | 8.19 | – | – | – | – | – | – | – | – | – | – | – | –
8 | COc1ccc(NC(=O)C(=O)C2NC(=S)NC2=O)c(OC)c1 (configuration not stated) | > 100 | > 100 | > 100 | > 100 | > 100 | > 100 | > 100 | > 100 | – | – | – | – | – | – | – | – | – | – | – | –
9 | CCCC[C@@H](COC(=O)N(Cc1cccs1)Cc1cccs1)NC(=O)N[C@@H](CC(=O)OC)c1ccc2c(c1)OCO2 | > 100 | > 100 | > 100 | > 100 | > 100 | > 100 | > 100 | – | – | > 100 | 67.7 | > 100 | > 100 | > 100 | > 100 | > 100 | 9.09 | > 100 | – | –
10 | CCc1cccc(C)c1NC(=O)NS(=O)(=O)c1ccc(C)cc1 | > 100 | > 100 | > 100 | > 100 | > 100 | > 100 | > 100 | > 100 | – | – | – | – | – | – | – | – | – | – | – | –
11 | O=[N+]([O-])c1ccccc1C1N2CCCCC2[C@@H]2c3[nH]c4ccccc4c3CCN12 (some centres not stated) | 35.8 | 29.4 | 29.2 | – | 26.7 | – | 26.6 | 23.5 | – | – | – | – | – | – | – | – | – | – | – | –
12 | CC(=O)Nc1ccc(-c2nnc(SCC(=O)Nc3ccc(C)cc3)o2)cc1 | > 100 | 30 | > 100 | 31.8 | 29.8 | 30.8 | 30 | > 100 | – | – | – | – | – | – | – | – | – | – | – | –
13 | C/C(=N\Nc1ccc([N+](=O)[O-])cc1)C(=O)N(C)Nc1ccccc1 | > 100 | > 100 | > 100 | > 100 | > 100 | – | > 100 | > 100 | – | – | – | – | – | – | – | – | – | – | – | –
14 | Cc1cc(C)nc(NS(=O)(=O)c2ccc(NC(=O)c3cccc4cc5ccccc5nc34)cc2)n1 | > 100 | 58.5 | > 100 | 56.1 | 51.4 | 56.7 | > 100 | > 100 | – | – | – | – | – | – | – | – | – | – | – | –
15 | COc1ccc(C2S/C(=C\c3ccc(OC)cc3OC)C(=O)N2NC(=O)Cc2ccccc2)cc1 (configuration not stated) | > 100 | > 100 | > 100 | > 100 | > 100 | > 100 | > 100 | > 100 | – | – | – | – | – | – | – | – | – | – | – | –
16 | CCN(CC)CCCNC(=O)Cc1ccccc1Nc1c(Cl)cccc1Cl | 36.2 | 29.1 | 29.9 | 25.6 | 7.88 | – | 28.5 | 23.8 | – | – | – | – | – | – | – | – | – | – | – | –
17 | Cc1ccc(Nc2ccc(Nc3ccc(C)cc3)c3c2C(=O)c2c(O)ccc(O)c2C3=O)cc1 | > 100 | > 100 | > 100 | > 100 | > 100 | > 100 | > 100 | > 100 | – | – | – | – | – | – | – | – | – | – | – | –
18 | CC[C@@H]1OC2(C)CC(S(=O)(=O)c3ccccc3)CC1O2 (some centres not stated) | > 100 | > 100 | > 100 | – | > 100 | > 100 | > 100 | > 100 | – | – | – | – | – | – | – | – | – | – | – | –
19 | Fc1ccccc1C1CC(C(c2ccccc2)c2ccccc2)=Nc2ccccc2S1 (configuration not stated) | 46.4 | 30.8 | 26.9 | 19.7 | 25.7 | 29.5 | 26 | 28.8 | – | – | – | – | – | – | – | – | – | – | – | –
20 | FC(F)(F)c1ccc(-c2cnc(Br)nc2NC2CCCCCC2)cc1 | > 100 | > 100 | > 100 | – | > 100 | > 100 | > 100 | > 100 | > 100 | > 100 | 86.5 | 55.2 | > 100 | – | > 100 | > 100 | 35.4 | > 100 | 33.9 | 12.3
21 | COc1ccc(O)c2c1C(=O)CCCC2=O | > 100 | > 100 | > 100 | > 100 | > 100 | > 100 | > 100 | > 100 | – | – | – | – | – | – | – | – | – | – | – | –
22 | COC(=O)C1=C(C(=O)OC)C2(C(=O)OC)OC1(OC)C(C1(C(=O)OC)C(C(=O)OC)=C1C(=O)OC)=C2C(=O)OC (configuration not stated) | > 100 | > 100 | > 100 | > 100 | > 100 | > 100 | > 100 | > 100 | – | – | – | – | – | – | – | – | – | – | – | –
23 | O=Nc1c(O)ccc2ccccc12 | 17.5 | 15.9 | 26.1 | 7.51 | 3.84 | – | 3.4 | 4.79 | 10.2 | 8.29 | 4.9 | 3.85 | 12.9 | 2.36 | 1.92 | – | 1.85 | 1.75 | 1.1 | 2.03
